Experimental data: patent publication US11613533B2, “Compounds useful for inhibiting RET kinase” (Eli Lilly and Company, priority 2020, dated 2023)

Columns and labels:
[1] = biological target: T1, V804M mutant RET kinase (N-terminal GST tagged recombinant human V804M mutant RET cytoplasmic domain, aa 658-end) (Homo sapiens, UniProt P07949, V804M); assay: RET enzyme assay (HTRF KinEASE TK), V804M; type: biochemical; conditions: 1 mM ATP, 40 min incubation at 22° C.
T1 construct: human V804M mutant RET cytoplasmic domain (aa 658-end); GST (N); purchased Millipore 14-760
T1 sequence (P07949 658-1114 V804M limits assumed): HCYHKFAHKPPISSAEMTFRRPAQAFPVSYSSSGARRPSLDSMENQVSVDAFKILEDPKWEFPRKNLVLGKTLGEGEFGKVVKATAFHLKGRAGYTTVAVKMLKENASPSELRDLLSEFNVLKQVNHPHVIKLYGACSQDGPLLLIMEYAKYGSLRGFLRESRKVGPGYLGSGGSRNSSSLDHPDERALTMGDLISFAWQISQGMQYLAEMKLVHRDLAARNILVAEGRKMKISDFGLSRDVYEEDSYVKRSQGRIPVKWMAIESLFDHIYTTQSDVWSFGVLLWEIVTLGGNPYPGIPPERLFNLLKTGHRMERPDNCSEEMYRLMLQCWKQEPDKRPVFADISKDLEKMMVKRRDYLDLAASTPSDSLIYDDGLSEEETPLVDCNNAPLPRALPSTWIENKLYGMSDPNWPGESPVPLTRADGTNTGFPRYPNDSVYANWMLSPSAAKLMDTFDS
Experimental: Assay A: RET Enzyme Assay
Compounds of formulas I, II, or III are screened for their ability to inhibit wildtype, V804M, and G810S mutant RET kinase using CisBio's HTRF® KinEASE™TK assay technology. N-terminal GST tagged recombinant human RET cytoplasmic domain (aa 658-end) from Eurofins ([…]; Catalog No. 14-570M) or N-terminal GST tagged recombinant human V804M mutant RET cytoplasmic domain (aa 658-end) from Millipore (1.25 nM enzyme; Catalog No. 14-760) or N-Terminal GST-tagged recombinant human G810S (aa-658-end) (1.25 nM Enzyme; produced in insect cells) is incubated with 62.5 nM TK-substrate biotin (CisBio, part of Catalog No. 62TK0PEC) and 1 mM ATP along with test compound (0.4% final DMSO in the assay) in a 1× Cisbio enzymatic buffer consisting of […], 5 mM MgCl2, 0.04% BSA and 0.05% Tween20 in a volume of 10 μL. Compounds are typically prepared in a threefold serial dilution in DMSO and added to the assay to give the appropriate final concentration. After a 40-60 min (40 min for V804M, 60 min for WT and G810S) incubation at 22° C., the reaction is quenched by adding quench solution (10 μL) containing 7.8 nM Streptavidine-XL665 and 0.5×TK-ab-Cryptate in HTRF detection buffer (all from CisBio, part of Cat. No. 62TK0PEC). After a 60-80 min incubation (60 minutes for WT, 80 minutes for V804M and G810S) at 22° C., the extent of reaction is determined using a PHERastar plate reader via HTRF detection at excitation/emission 337/665 nm. Percent of inhibition is calculated with 0% inhibition referring to control conditions containing no compound (0.4% DMSO only) and 100% inhibition represented by conditions containing no enzyme. The % inhibition values are fit to a 4 parameter logistic curve, and the determined IC50 value is defined as the estimated concentration of inhibitor at the inflexion point of the fitted curve.

[2] = biological target: T2, KIF5B-RET mutant form G810S in HEK293 cells (Homo sapiens, UniProt P07949, G810S); assay: RET cell assay (In-Cell Western, phospho-RET Y1062), G810S; type: cell-based; conditions: HEK293, doxycycline-induced KIF5B-RET G810S, 1 hr compound treatment; read-out: EC50, inhibition of intracellular autophosphorylation of RET at tyrosine 1062, G810S cells
T2 construct: expressed in transfected cells; host or cells: HEK293; the other entry of the earlier key: KIF5B (P33176, Kinesin-1 heavy chain)
T2 sequence (P07949 713-1063 G810S limits assumed): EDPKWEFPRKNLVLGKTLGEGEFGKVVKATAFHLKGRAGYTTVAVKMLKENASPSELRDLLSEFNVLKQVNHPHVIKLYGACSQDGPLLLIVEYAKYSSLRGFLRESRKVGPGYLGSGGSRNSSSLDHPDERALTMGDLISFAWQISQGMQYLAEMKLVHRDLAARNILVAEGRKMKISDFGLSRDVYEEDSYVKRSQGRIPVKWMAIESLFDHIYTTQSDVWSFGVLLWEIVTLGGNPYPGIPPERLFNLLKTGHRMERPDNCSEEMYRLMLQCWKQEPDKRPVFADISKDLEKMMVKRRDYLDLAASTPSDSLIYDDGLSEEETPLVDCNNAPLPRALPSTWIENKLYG
Experimental: Compounds of formulas (I), (II), and (III) are screened for their ability to inhibit the intracellular autophosphorylation of RET at tyrosine 1062 as detected by In-Cell Western. HEK293 cells containing a doxycycline-inducible plasmid for inducible expression of KIF5B-RET WT and RET mutant forms V804M and G810S are seeded at 25,000 cells/well into black poly-D-lysine pre-coated 384-well plates (Corning, Catalog No. 356697). Expression of KIF5B-RET is induced with doxycycline at 1 μg/mL and cells are incubated at 37° C. overnight. Compounds are prepared in a threefold serial dilution in DMSO before further diluting 1:100 in media prior to the addition to the cells (0.1% final DMSO concentration). Compound treatment is performed for 1 hr at 37° C. followed by fixation of cells with 4% formaldehyde for 20 min at RT and cell permeabilisation with ice-cold MeOH for 10 min at RT. Cells are incubated with Intercept® blocking buffer (Li—COR, Catalogue No. 927-70010) for 1 hr at RT. Incubation with primary antibodies against human phospho-RET (Y1062) (R&D, Catalogue No. AF5009, 1/250 dilution) and human glyceraldehyde-3-phosphate dehydrogenase (clone 6C5, Merck, Catalog No. MAB374, 1/1000 dilution) are performed overnight at 4° C. Incubation with secondary antibodies IRDye® 800CW goat anti-rabbit IgG (Li—COR, Catalogue No. 926-32211, 1/1000 dilution) and IRDye® 680CW goat anti-mouse IgG (Li—COR, Catalogue No. 926-68070, 1/1000 dilution) are performed for 1 hr at RT. All antibody dilutions are done in Intercept® blocking buffer containing 0.05% Tween20. After washing cells with PBS-T (Cell Signaling technology, Catalogue No. 9809), the images are acquired on a Li—COR Odyssey LCx at 700 and 800 nm. Percent of DMSO control is calculated with 100% signal referring to control conditions containing no compound (0.4% DMSO only) and 0% signal represented by conditions containing control compound. The % of DMSO control values are fit to a 4 parameter logistic curve, and the determined EC50 value is defined as the estimated concentration of inhibitor at the inflexion point of the fitted curve.

Row | IC50 [1] | EC50 [2] | SMILES
1 | < 100 nM | < 100 nM | CC(C(=O)Nc1cc(CC(C)(C)C)no1)c1ccc(-c2nn(C(C)C)c(N)c2C(N)=O)cc1 (single isomer, unassigned; isomer 1) [Example 1, 5-Amino-3-[4-(1-[[3-(2,2-dimethylpropyl)-1,2-oxazol-5-yl]carbamoyl]ethyl)phenyl]-1-isopropylpyrazole-4-carboxamide, Isomer 1]
2 | < 100 nM | < 100 nM | CC(C(=O)Nc1cc(C(C)(C)C(F)(F)F)on1)c1ccc(-c2nn(C(C)C)c(N)c2C(N)=O)cc1 (single isomer, unassigned; isomer 1) [Example 81, 5-Amino-1-isopropyl-3-[4-(1-[[5-(1,1,1-trifluoro-2-methylpropan-2-yl)-1,2-oxazol-3-yl]carbamoyl]ethyl)phenyl]pyrazole-4-carboxamide, Isomer 1]
3 | < 100 nM | < 100 nM | CC(C(=O)Nc1cc(C(C)(C)CC(F)(F)F)on1)c1ccc(-c2nn(C(C)C)c(N)c2C(N)=O)nc1 (single isomer, unassigned; isomer 2) [Example 68, 5-Amino-1-isopropyl-3-(5-(1-oxo-1-((5-(4,4,4-trifluoro-2-methylbutan-2-yl)isoxazol-3-yl)amino)propan-2-yl)pyridin-2-yl)-1H-pyrazole-4-carboxamide, Isomer 2]
4 | < 100 nM | < 100 nM | CC(C(=O)Nc1cc(C(C)(C)C(F)(F)F)on1)c1ccc(-c2nn(C(C)C)c(N)c2C(N)=O)nc1 (single isomer, unassigned; isomer 2) [Example 64, 5-Amino-1-isopropyl-3-[5-(1-[[5-(1,1,1-trifluoro-yl)-1,2-oxazol-3-2-methylpropan-2-yl]carbamoyl]ethyl)pyridin-2-yl]pyrazole-4-carboxamide, Isomer 2]
5 | < 100 nM | < 100 nM | CC(C(=O)Nc1cc(C(C)(C)C(C)(F)F)on1)c1ccc(-c2nn(C(C)C)c(N)c2C(N)=O)nc1 (single isomer, unassigned; isomer 2) [Example 70, 5-Amino-3-[5-(1-[[5-(3,3-difluoro-2-methylbutan-2-yl)-1,2-oxazol-3-yl]carbamoyl]ethyl)pyridin-2-yl]-1-isopropylpyrazole-4-carboxamide, Isomer 2]
6 | < 100 nM | < 100 nM | CC(C(=O)Nc1cc(C(C)(C)C(C)(F)F)on1)c1ccc(-c2nn(C(C)C)c(N)c2C(N)=O)cc1 (single isomer, unassigned; isomer 2) [Example 76, 5-Amino-3-[4-(1-[[5-(3,3-difluoro-2-methylbutan-2-yl)-1,2-oxazol-3-yl]carbamoyl]ethyl)phenyl]-1-isopropylpyrazole-4-carboxamide, Isomer 2]
7 | < 100 nM | < 100 nM | CC(C(=O)Nc1cc(C(C)(C)C(F)(F)F)no1)c1ccc(-c2nn(C(C)C)c(N)c2C(N)=O)cn1 (single isomer, unassigned; isomer 2) [Example 90, 5-Amino-1-isopropyl-3-[6-[1-methyl-2-oxo-2-[[3-(2,2,2-trifluoro-1,1-dimethyl-ethyl)isoxazol-5-yl]amino]ethyl]-3-pyridyl]pyrazole-4-carboxamide, Isomer 2]
8 | < 100 nM | < 100 nM | CC(C(=O)Nc1cc(C(C)(C)C)sn1)c1ccc(-c2nn(C(C)C)c(N)c2C(N)=O)cc1 (single isomer, unassigned; isomer 2) [Example 80, 5-Amino-3-(4-[1-[(5-tert-butyl-1,2-thiazol-3-yl)carbamoyl]ethyl]phenyl)-1-isopropylpyrazole-4-carboxamide, isomer 2]
9 | < 100 nM | < 100 nM | CCC(C)(C)c1cc(NC(=O)C(C)c2ccc(-c3nn(C(C)C)c(N)c3C(N)=O)cn2)on1 (single isomer, unassigned; isomer 2) [Example 84, 5-Amino-1-isopropyl-3-[6-[2-[[3-(1,1-dimethylpropyl)isoxazol-5-yl]amino]-1-methyl-2-oxo-ethyl]-3-pyridyl]pyrazole-4-carboxamide, Isomer 2]
10 | < 100 nM | < 100 nM | CCC(C)(C)c1cc(NC(=O)C(C)c2ccc(-c3nn(C(C)C)c(N)c3C(N)=O)cc2)on1 (single isomer, unassigned; isomer 1) [Example 15, 5-Amino-1-isopropyl-3-[4-(1-[[3-(2-methylbutan-2-yl)-1,2-oxazol-5-yl]carbamoyl]ethyl)phenyl]pyrazole-4-carboxamide, Isomer 1]
11 | < 100 nM | < 100 nM | CC(C(=O)Nc1cc(C(C)(C)C(F)(F)F)no1)c1ccc(-c2nn(C(C)C)c(N)c2C(N)=O)cc1 (single isomer, unassigned; isomer 1) [Example 17, 5-Amino-1-isopropyl-3-[4-(1-[[3-(1,1,1-trifluoro-2-methylpropan-2-yl)-1,2-oxazol-5-yl]carbamoyl]ethyl)phenyl]pyrazole-4-carboxamide, Isomer 1]
12 | < 100 nM | < 100 nM | CC(C(=O)Nc1cc(-c2ccc(Cl)cc2Cl)no1)c1ccc(-c2nn(C(C)C)c(N)c2C(N)=O)cn1 (single isomer, unassigned; isomer 2) [Example 94, 5-Amino-1-isopropyl-3-[6-[2-[[3-(2,4-dichlorophenyl)isoxazol-5-yl]amino]-1-methyl-2-oxo-ethyl]-3-pyridyl]pyrazole-4-carboxamide, Isomer 2]
